The OligoGym collection
Several values for one entry are separate records, joined by “and”; a condition that tells them apart may be missing. Equal values may be shown once. After the bases stand the sugars from the 5' end (letter, count) and the backbone: PS all phosphorothioate, else s phosphorothioate and o phosphodiester by linkage. Methylation of C is not given here. e = 2'-O-(2-methoxyethyl) (MOE); k = constrained ethyl (cEt); d = 2'-deoxy (DNA)

Target: IRF4
Conditions: ASO

AAGCAAGTCGGTCCAC (sugars k3 d10 k3, PS)
target mRNA inhibition (SK-MEL-28, 4 µM): 32%

AAGCACTGGCATCGAG (sugars k3 d10 k3, PS)
target mRNA inhibition (SK-MEL-28, 4 µM): 27%

AAGCAGTGATGTCAGG (sugars k2 d9 e3 k2, PS)
target mRNA inhibition (MM.1R, 1 µM): 62% and 51%

AAGCAGTGATGTCAGG (sugars k3 d10 k3, PS)
target mRNA inhibition (MM.1R, 0.0625 µM): 8%
target mRNA inhibition (MM.1R, 0.25 µM): 25%
target mRNA inhibition (MM.1R, 1 µM): 66% and 65%
target mRNA inhibition (MM.1R, 4 µM): 75%

AAGCAGTGATGTCAGG (sugars kkdddddddddkdkdk, PS)
target mRNA inhibition (MM.1R, 1 µM): 60% and 61%

AAGCATAAAAGGTTCC (sugars k3 d10 k3, PS)
target mRNA inhibition (SK-MEL-28, 4 µM): 28%

AAGCATAGAGTCACCT (sugars k3 d10 k3, PS)
target mRNA inhibition (SK-MEL-28, 4 µM): 36%

AAGCATTTTATCATCC (sugars kddddddddddkekek, PS)
target mRNA inhibition (MM.1R, 1 µM): 14%

AAGCATTTTATCATCC (sugars kdddddddddkekeke, PS)
target mRNA inhibition (MM.1R, 1 µM): 6%

AAGCATTTTATCATCC (sugars kkkddddddddkekek, PS)
target mRNA inhibition (MM.1R, 1 µM): 10%

AAGCTTAGTTATCTGG (sugars k3 d10 k3, PS)
target mRNA inhibition (MM.1R, 0.0625 µM): -13%
target mRNA inhibition (MM.1R, 0.25 µM): -10%
target mRNA inhibition (MM.1R, 1 µM): 35% and 13%
target mRNA inhibition (MM.1R, 4 µM): 45%

AAGCTTGATAAAGGCT (sugars k2 d9 e3 k2, PS)
target mRNA inhibition (MM.1R, 1 µM): 53%

AAGCTTGATAAAGGCT (sugars kddddddddddkekek, PS)
target mRNA inhibition (MM.1R, 1 µM): 3%

AAGCTTGATAAAGGCT (sugars kdddddddddkekeke, PS)
target mRNA inhibition (MM.1R, 1 µM): 2%

AAGGAACAAGTGTATC (sugars k3 d10 k3, PS)
target mRNA inhibition (MM.1R, 1 µM): 13%

AAGGAGGTAGTGGCCC (sugars k3 d10 k3, PS)
target mRNA inhibition (SK-MEL-28, 4 µM): 47%

AAGGGAACAGATAGTT (sugars k3 d10 k3, PS)
target mRNA inhibition (SK-MEL-28, 4 µM): 20%

AAGTCATTGCTCTTGT (sugars k4 d8 k4, PS)
target mRNA inhibition (SK-MEL-28, 4 µM): 28%

AAGTCTACAGCCCCAG (sugars k3 d10 k3, PS)
target mRNA inhibition (MM.1R, 1 µM): -5%

AAGTGGACCCCATTGC (sugars k3 d10 k3, PS)
target mRNA inhibition (SK-MEL-28, 4 µM): 31%

AAGTGTCTAAAGTCCC (sugars kddddddddddkekek, PS)
target mRNA inhibition (MM.1R, 1 µM): -1%

AAGTGTCTAAAGTCCC (sugars kkdddddddddekeke, PS)
target mRNA inhibition (MM.1R, 1 µM): 13% and -1%

AAGTGTCTAAAGTCCC (sugars kkdddddddddkdkdk, PS)
target mRNA inhibition (MM.1R, 1 µM): 13% and 21%

AAGTGTCTTCCACAAG (sugars k3 d10 k3, PS)
target mRNA inhibition (SK-MEL-28, 4 µM): 54%

AATAAGATCCCACGAA (sugars k3 d10 k3, PS)
target mRNA inhibition (SK-MEL-28, 4 µM): 15%

AATACCTACCTGCCCT (sugars k3 d10 k3, PS)
target mRNA inhibition (SK-MEL-28, 4 µM): 15%

AATACGACAACTTTCC (sugars k3 d10 k3, PS)
target mRNA inhibition (SK-MEL-28, 4 µM): 50%

AATAGAGGAATGGCGG (sugars k3 d10 k3, PS)
target mRNA inhibition (SK-MEL-28, 4 µM): 53%

AATCACCCTGGTCACC (sugars k3 d10 k3, PS)
target mRNA inhibition (MM.1R, 1 µM): 1%

AATCACTGGAGAGAAC (sugars k3 d10 k3, PS)
target mRNA inhibition (SK-MEL-28, 4 µM): 29%

AATCATGATATTAGAG (sugars k3 d10 k3, PS)
target mRNA inhibition (SK-MEL-28, 4 µM): 31%

AATGAACCCTAAGTTT (sugars k3 d10 k3, PS)
target mRNA inhibition (SK-MEL-28, 4 µM): 3%

AATGACTTAGTCAGAA (sugars k3 d10 k3, PS)
target mRNA inhibition (SK-MEL-28, 4 µM): 27%

AATGATGGCAGTCTAC (sugars k3 d10 k3, PS)
target mRNA inhibition (SK-MEL-28, 4 µM): 33%

AATGCACCTGGGAGAC (sugars k3 d10 k3, PS)
target mRNA inhibition (SK-MEL-28, 4 µM): 62%
